Experimental data reported in patent US7786141B2 (Vertex Pharmaceuticals Incorporated, priority 2004, dated 2010).

Key:
M4 muscarinic receptor = target: T1, M4 muscarinic receptor (Homo sapiens, UniProt P08173); experiment: Functional mobilization of intracellular calcium (FLIPR) in M4-CHO cells; format: cell-based; conditions: M4 receptor, calcium mobilization; for Emax: read-out: M4 Efficacy
T1 construct: expressed in transfected cells; host or cells: CHO (M4-CHO)
T1 sequence (P08173 1-479): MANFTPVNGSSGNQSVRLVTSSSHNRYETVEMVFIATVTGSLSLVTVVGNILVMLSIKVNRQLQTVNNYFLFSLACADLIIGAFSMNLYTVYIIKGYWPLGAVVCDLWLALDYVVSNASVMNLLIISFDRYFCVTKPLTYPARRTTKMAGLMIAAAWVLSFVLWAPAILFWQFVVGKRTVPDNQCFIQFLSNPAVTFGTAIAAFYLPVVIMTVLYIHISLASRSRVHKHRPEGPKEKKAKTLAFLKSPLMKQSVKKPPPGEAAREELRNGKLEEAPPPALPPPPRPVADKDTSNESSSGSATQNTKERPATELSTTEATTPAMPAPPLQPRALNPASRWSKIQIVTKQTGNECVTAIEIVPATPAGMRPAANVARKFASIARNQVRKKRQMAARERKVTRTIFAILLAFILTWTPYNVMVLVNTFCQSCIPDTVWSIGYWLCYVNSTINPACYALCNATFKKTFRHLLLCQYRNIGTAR
Protocol: (§1) Functional Mobilization of Intracellular Calcium to Determine Muscarinic Receptor Activity:
(§2) CHO cells expressing muscarinic receptors (M1 to M5) are grown as monolayers in tissue culture flasks at 37° C. in a humidified atmosphere containing 5% CO2 and passaged every 3-5 days. The growth media is Dulbecco's modified eagles medium (DMEM, Gibco Cat# 12430-054), containing 25 mM Hepes and supplemented with Fetal Bovine Serum (Hyclone, cat# SH30071.03), 0.1 mM of MEM non-essential amino acids (GIBCO, Cat# 11140-050), 1 mM MEM Sodium Pyruvate (GIBCO Cat# 11360-070) and 100 units/ml of Penicillin G and 100 μg/ml of Streptomycin (GIBCO Cat# 15140-122). The recombinant muscarinic receptor cell lines are grown under antibiotic pressure with media containing 25 μg/ml zeocin and 500 μg/ml G418 (M1-CHO), 4 μg/ml puromycin, 50 μg/ml zeocin and 2.5 μg/ml blasticidin (M2 and M4-CHO) or 50 μg/ml zeocin and 4 μg/ml puromycin (M3 and M5-CHO).
(§3) Cells are harvested at 80-90% confluence using Versene (GIBCO Cat# 15040-066), collected by centrifugation and seeded 18-24 hrs prior to running the calcium assay at a density of 5,000 cells/well in back-walled, clear-bottomed 384-well plates (BD Biocoat, poly-D-lysine, Cat#356663). The day of the experiment, the cells are washed with a plate washer (Bioteck Instruments, ELX 405) using bath 1 buffer (140-mM NaCl, 4.5-mM KCl, 2-mM CaCl2, 1-mM MgCl2, 10-mM Hepes-Na, 10-mM Glucose, pH 7.4, with NaOH) containing 1 mM Probenecid. Next, the calcium dye Fluo-3 (25 μl/well of Fluo-3 AM at 4 μM, Molecular Probes F-1241, in Bath 1 buffer containing 1 mM Probenecid) is added to the 25 μl of Bath 1 remaining in each well after the plate wash and the dye is loaded at 37° C. in the tissue culture incubator for 60-90 min. The fluorescent dye is removed using the plate washer with Bath 1 containing 1 mM Probenecid, leaving 25 μl/well of this solution after the wash. Alternatively, cells can be loaded with the calcium indicator from Molecular Devices (Calcium 3 Assay Reagents, Cat # R7181) adding 5 μl of a 5× solution dye in Bath 1 containing 1 mM Probenecid (10 ml per dye flask cat# R7182 to generate a solution 20×) to 20 μl of the same buffer. After loading for 60 min, the experiment can be run without having to remove the dye.
(§4) Compounds are prepared at a 2× fold concentration in a 96-well plate (round bottom, Costar Corning cat# 3656), by reconstituting the pre-spotted compounds in bath 1 containing 1 mM probenecid. The final concentration DMSO is 0.5%, and the amount of DMSO is normalized across the assay plate. To determine an agonist action of the compounds on muscarinic receptors, the reconstituted compounds are added (25 μl compound/well) to the cell assay plate (containing 25 μl/well) using the multi-channel robotic system of the FLIPR 3 Instrument (Molecular Devices, Sunnyvale, Calif.). To determine a functional inhibitory action of the compounds on muscarinic receptors, the reconstituted compounds are added (25 μl compound/well) to the assay plate and pre-incubated for 15 min prior to adding 25 μl of Carbachol at 3× the EC80 for each muscarinic subtype. Alternatively, the compounds can be co-applied simultaneously with the agonist. In both assay modes, the fluorescence is recorded for 60 sec (excitation wavelength is […] and emission wavelength 540 nm) using the FLIPR 3 instrument.
(§5) The potency, efficacy and selectivity of the muscarinic compounds were evaluated by screening the compound activity across the whole family (M1 to M5 cells). Compounds were also screened for activity on other proteins such as other GPCRs and ion channels to determine selectivity on M4 receptors.

M1 muscarinic receptor = target: T2, M1 muscarinic receptor (Homo sapiens, UniProt P11229); experiment: Functional mobilization of intracellular calcium (FLIPR) in M1-CHO cells; format: cell-based; conditions: M1 receptor, calcium mobilization; for Emax: read-out: M1 Efficacy
T2 construct: expressed in transfected cells; host or cells: CHO (M1-CHO)
T2 sequence (P11229 1-460): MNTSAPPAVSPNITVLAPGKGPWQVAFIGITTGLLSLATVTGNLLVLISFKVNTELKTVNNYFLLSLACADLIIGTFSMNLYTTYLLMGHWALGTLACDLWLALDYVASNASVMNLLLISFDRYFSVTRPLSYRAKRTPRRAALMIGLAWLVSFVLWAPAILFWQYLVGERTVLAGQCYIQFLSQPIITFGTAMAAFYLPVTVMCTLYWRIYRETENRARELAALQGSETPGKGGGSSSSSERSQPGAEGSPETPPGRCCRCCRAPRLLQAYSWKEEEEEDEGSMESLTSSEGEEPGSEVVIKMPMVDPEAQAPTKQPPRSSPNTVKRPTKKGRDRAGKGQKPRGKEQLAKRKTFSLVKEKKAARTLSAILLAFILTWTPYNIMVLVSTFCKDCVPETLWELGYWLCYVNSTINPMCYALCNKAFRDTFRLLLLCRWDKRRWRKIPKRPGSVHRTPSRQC
Protocol: as §1, §2, §3, §4, §5

Compound | M4 Activity (M4 muscarinic receptor) | Emax (M4 muscarinic receptor) [%] | M1 Activity (M1 muscarinic receptor) | Emax (M1 muscarinic receptor) [%]
CCOC(=O)N1C2CCC1CC(N1CCC3(CC1)CC(=O)Nc1ccccc13)C2 (stereo not shown) [compound 56] | xxx (activity was measured to be less than 0.1 μM) | 65 to 85 | xxx (activity was measured to be less than 0.1 μM) | 65 to 85
O=C(C1CC1)N1CC2(CCN(C3CC4CCC(C3)N4C(=O)O[C@H]3CCOC3)CC2)c2cc(F)ccc21 (stereo partly shown) [compound 57] | xxx (activity was measured to be less than 0.1 μM) | 65 to 85 | xxx (activity was measured to be less than 0.1 μM) | 65 to 85
CCOC(=O)N1CCC(N2CCC3(CC2)CN(C(C)=O)c2ccc(-c4ccc(C)cc4)cc23)CC1 [compound 58] | xx (activity was measured to be between 0.1 μM and 1.0 μM) | 65 to 85 | xxx (activity was measured to be less than 0.1 μM) | 65 to 85
CCOC(=O)N1C2CCC1CC(N1CCC3(CC1)CN(C(=O)c1snnc1C)c1ccc(F)cc13)C2 (stereo not shown) [compound 59] | xx (activity was measured to be between 0.1 μM and 1.0 μM) | 65 to 85 | xxx (activity was measured to be less than 0.1 μM) | < 65
CCOC(=O)N1CCC(CN2CCC3(CC2)CN(C(C)=O)c2ccc(F)cc23)CC1 [compound 60] | x (activity was measured to be greater than 1.0 μM) | 65 to 85 | xx (activity was measured to be between 0.1 μM and 1.0 μM) | 65 to 85
CCOC(=O)N1CCC(N2CCC3(CC2)C[C@H](NC(C)=O)c2ccccc23)CC1 [compound 61] | xx (activity was measured to be between 0.1 μM and 1.0 μM) | 65 to 85 | xxx (activity was measured to be less than 0.1 μM) | 65 to 85
C#CCCOC(=O)N1CCC(N2CCC3(CC2)CN(C(C)=O)c2ccc(F)cc23)CC1 [compound 62] | xx (activity was measured to be between 0.1 μM and 1.0 μM) | 65 to 85 | xxx (activity was measured to be less than 0.1 μM) | < 65
CCOC(=O)N1CCC(N2CCC3(CC2)CN(C(=O)OCC(C)(C)C)c2ccc(F)cc23)CC1 [compound 63] | x (activity was measured to be greater than 1.0 μM) | < 65 | xxx (activity was measured to be less than 0.1 μM) | < 65
Clc1ccc2c(c1)C1(CCO2)CCN(C[C@H]2C[C@H]3C=C[C@H]2C3)CC1 [compound 64] | xx (activity was measured to be between 0.1 μM and 1.0 μM) | < 65 | xxx (activity was measured to be less than 0.1 μM) | < 65
COCCOC(=O)N1CCCC(N2CCC3(CC2)CN(C(C)=O)c2ccc(F)cc23)CC1 (stereo not shown) [compound 65] | x (activity was measured to be greater than 1.0 μM) | < 65 | xx (activity was measured to be between 0.1 μM and 1.0 μM) | 65 to 85
CCOC(=O)N1CCC(N2CCC3(CC2)CN(C(=O)c2ccc(OC(F)(F)F)cc2)c2ccc(F)cc23)CC1 [compound 66] | xxx (activity was measured to be less than 0.1 μM) | > 85 | xxx (activity was measured to be less than 0.1 μM) | > 85
CC(=O)N1CC2(CCN(C3CC4CCC(C3)N4C(=O)O[C@@H]3CCOC3)CC2)c2cc(F)ccc21 (stereo partly shown) [compound 67] | xx (activity was measured to be between 0.1 μM and 1.0 μM) | < 65 | xxx (activity was measured to be less than 0.1 μM) | < 65
O=C(OC1CCC1)N1C2CCC1CC(N1CCC3(CCc4ccccc43)CC1)C2 (stereo not shown) [compound 68] | x (activity was measured to be greater than 1.0 μM) | < 65 | xx (activity was measured to be between 0.1 μM and 1.0 μM) | < 65
O=C(C1CCC1)N1CC2(CCN(C3CC4CCC(C3)N4C(=O)O[C@@H]3CCOC3)CC2)c2cc(F)ccc21 (stereo partly shown) [compound 69] | xx (activity was measured to be between 0.1 μM and 1.0 μM) | < 65 | xx (activity was measured to be between 0.1 μM and 1.0 μM) | < 65
CS(=O)(=O)N[C@H]1CC2(CCN(C[C@H]3C[C@H]4C=C[C@H]3C4)CC2)c2ccccc21 [compound 70] | x (activity was measured to be greater than 1.0 μM) | 65 to 85 | xx (activity was measured to be between 0.1 μM and 1.0 μM) | 65 to 85
COCCOC(=O)N1C2CCC1CC(N1CCC3(CC1)C(=O)Nc1ccccc13)C2 (stereo not shown) [compound 71] | xx (activity was measured to be between 0.1 μM and 1.0 μM) | < 65 | xxx (activity was measured to be less than 0.1 μM) | < 65
Cc1ccc2c(c1)C1(CCN(C3C4CCCC3CCC4)CC1)CN2 (stereo not shown) [compound 72] | xx (activity was measured to be between 0.1 μM and 1.0 μM) | 65 to 85 | xxx (activity was measured to be less than 0.1 μM) | 65 to 85
CCOC(=O)N1C2CCC1CC(N1CCC3(CC1)CN(C(=O)c1cc(C)oc1C)c1ccc(F)cc13)C2 (stereo not shown) [compound 73] | xx (activity was measured to be between 0.1 μM and 1.0 μM) | 65 to 85 | xxx (activity was measured to be less than 0.1 μM) | 65 to 85
CCCc1ccc2c(c1)C1(CCN(C3CCN(C(=O)OCC)CC3)CC1)CN2C(C)=O [compound 74] | xx (activity was measured to be between 0.1 μM and 1.0 μM) | 65 to 85 | xxx (activity was measured to be less than 0.1 μM) | 65 to 85
